These results are taken from ChEMBL document CHEMBL3727364, “Resorcinol n-aryl amide compounds, for use as pyruvate dehydrogenase kinase inhibitors” (2015).

Chain of [Pyruvate dehydrogenase (acetyl-transferring)] kinase isozyme 1, mitochondrial (Q15118 whole entry): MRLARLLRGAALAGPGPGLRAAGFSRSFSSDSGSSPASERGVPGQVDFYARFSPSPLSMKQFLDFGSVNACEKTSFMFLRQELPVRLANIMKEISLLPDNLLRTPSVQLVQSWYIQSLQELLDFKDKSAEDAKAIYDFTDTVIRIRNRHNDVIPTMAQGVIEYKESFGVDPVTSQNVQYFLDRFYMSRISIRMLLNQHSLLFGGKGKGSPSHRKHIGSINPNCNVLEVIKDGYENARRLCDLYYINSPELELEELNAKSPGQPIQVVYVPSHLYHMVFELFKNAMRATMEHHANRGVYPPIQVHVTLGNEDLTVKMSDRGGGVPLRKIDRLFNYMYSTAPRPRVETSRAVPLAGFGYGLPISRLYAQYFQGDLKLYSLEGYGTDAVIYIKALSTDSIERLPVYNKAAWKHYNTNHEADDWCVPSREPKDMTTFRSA

The experiment addresses [Pyruvate dehydrogenase (acetyl-transferring)] kinase isozyme 1, mitochondrial (Homo sapiens, UniProt Q15118). Description: Binding affinity to pyruvate dehydrogenase kinase 1 (unknown origin) incubated for 90 mins by VER-00160364 probe based fluorescence polarization assay. In general terms: In fluorescence polarisation assays a small probe gives low polarisation when free and higher when bound to something large.
A word on the IC50: it is the midpoint of a concentration-inhibition curve. Consider `O=C(c1ccc(O)cc1O)N(Cc1ccsc1)c1ccc(-c2ccnc3ccccc23)cc1`, for which the IC50 stood at 1 µM.
With `O=C(c1ccc(O)cc1O)N(Cc1ccsc1)c1ccc(-c2nc3ccccc3cc2CO)cc1` the figure was 0.1 µM.
With `Cc1cc2cc(F)ccc2nc1-c1ccc(N(Cc2ccsc2)C(=O)c2ccc(O)cc2O)cc1` the figure was 1 µM.
Take `O=C(c1ccc(O)cc1O)N(Cc1cccnc1)c1ccc(-c2nccc3occc23)cc1`: the IC50 came to 1 µM.
With `O=C(c1ccc(O)cc1O)N(Cc1ccsc1)c1ccc(-c2cnc3ccccc3n2)cc1` the figure was 10 µM; with `CN(Cc1cccc2ccccc12)C(=O)c1ccc(N(Cc2ccsc2)C(=O)c2ccc(O)cc2O)cc1`, 1 µM; with `COc1cnc(Cl)nc1-c1ccc(N(Cc2ccsc2)C(=O)c2ccc(O)cc2O)cc1`, 0.1 µM.
With `Cc1ccc(S(N)(=O)=O)nc1-c1ccc(N(Cc2ccsc2)C(=O)c2ccc(O)cc2O)cc1` the figure was 0.1 µM; with `Cc1nc(-c2ccc(N(Cc3ccsc3)C(=O)c3ccc(O)cc3O)cc2)c2ccccc2n1`, 1 µM; with `CCc1cc2ccccc2nc1-c1ccc(N(Cc2ccsc2)C(=O)c2ccc(O)cc2O)cc1`, 1 µM.
With `Cc1cc(S(=O)(=O)N2CCCCC2)cnc1-c1ccc(N(Cc2ccsc2)C(=O)c2ccc(O)cc2O)cc1` the figure was 0.01 µM; with `Nc1nccc(-c2ccc(N(Cc3cccnc3)C(=O)c3ccc(O)cc3O)cc2)n1`, 1 µM; with `O=C(c1ccc(O)cc1O)N(Cc1cccnc1)c1ccc(-c2nc(C(F)(F)F)ccc2C(F)(F)F)cc1`, 0.01 µM.
`O=C(c1ccc(O)cc1O)N(Cc1cccnc1)c1ccc(-c2nc(Cl)nc3[nH]ccc23)cc1` returned an IC50 of 0.1 µM.
On to `CN(Cc1ccc2ccccc2n1)C(=O)c1ccc(N(Cc2ccsc2)C(=O)c2ccc(O)cc2O)cc1`, for which the IC50 is 0.1 µM.
`COc1ccc(CN(C)C(=O)c2ccc(N(Cc3ccsc3)C(=O)c3cc(Cl)c(O)cc3O)cc2)cc1` yielded an IC50 of 0.1 µM.
As to `CN(C)C(=O)c1ccc(N(Cc2ccsc2)C(=O)c2ccc(O)cc2O)cc1`, the IC50 stood at 0.01 µM.
As for `O=C(c1ccc(O)cc1O)N(Cc1ccsc1)c1ccc(-c2ncnc3ccc(Cl)cc23)cc1`, the figure is 1 µM; as for `Cc1nc(N(C)C)nc(-c2ccc(N(Cc3cccnc3)C(=O)c3ccc(O)cc3O)cc2)c1C`, 1 µM; as for `CCc1cnc(C)nc1-c1ccc(N(Cc2cccnc2)C(=O)c2ccc(O)cc2O)cc1`, 0.01 µM.
With `COc1cc(-c2ccc(N(Cc3ccsc3)C(=O)c3ccc(O)cc3O)cc2)cnc1OC` the figure was 10 µM.
For the molecule `CSc1nc(-c2ccc(N(Cc3ccsc3)C(=O)c3ccc(O)cc3O)cc2)c2cc[nH]c2n1`, the IC50 was 1 µM.
With `COc1cc(-c2ccc(N(Cc3ccsc3)C(=O)c3ccc(O)cc3O)cc2)ncn1` the figure was 10 µM; with `N#Cc1cc(Cl)nc(-c2ccc(N(Cc3cccnc3)C(=O)c3ccc(O)cc3O)cc2)c1`, 0.1 µM.
As for `COc1ccc2nc(-c3ccc(N(Cc4ccsc4)C(=O)c4ccc(O)cc4O)cc3)c(C)cc2c1`, the figure is 0.1 µM; as for `N#Cc1cc(Cl)nc(-c2ccc(N(Cc3ccsc3)C(=O)c3ccc(O)cc3O)cc2)c1`, 10 µM; as for `O=C(c1ccc(O)cc1O)N(Cc1ccsc1)c1ccc(-c2ncnc3cccc(F)c23)cc1`, 0.1 µM.
As for `Cc1cc(S(=O)(=O)N(C)CCO)cnc1-c1ccc(N(Cc2ccsc2)C(=O)c2ccc(O)cc2O)cc1`, the figure is 0.1 µM; as for `Cc1cc(S(=O)(=O)N2CCN(C)CC2)cnc1-c1ccc(N(Cc2ccsc2)C(=O)c2ccc(O)cc2O)cc1`, 0.01 µM; as for `Cc1cc2ccc(F)cc2nc1-c1ccc(N(Cc2ccsc2)C(=O)c2ccc(O)cc2O)cc1`, 0.1 µM.
`Nc1nccc(-c2ccc(N(Cc3ccsc3)C(=O)c3ccc(O)cc3O)cc2)n1` registered an IC50 of 1 µM.
With `CCNc1cc(-c2ccc(N(Cc3ccsc3)C(=O)c3ccc(O)cc3O)cc2)ncn1` the figure was 10 µM; with `CN(Cc1ccc2ccccc2c1)C(=O)c1ccc(N(Cc2ccsc2)C(=O)c2ccc(O)cc2O)cc1`, 1 µM; with `Cc1cc(S(=O)(=O)N2CCC(F)(F)CC2)cnc1-c1ccc(N(Cc2ccsc2)C(=O)c2ccc(O)cc2O)cc1`, 1 µM.
With `Cc1cc2ccccc2nc1-c1ccc(N(Cc2ccsc2)C(=O)c2ccc(O)cc2O)cc1` the figure was 0.1 µM; with `O=C(c1ccc(O)cc1O)N(Cc1ccsc1)c1ccc(-c2nc(Cl)nc3[nH]ccc23)cc1`, 1 µM.
As for `CN(Cc1ccnc2ccccc12)C(=O)c1ccc(N(Cc2ccsc2)C(=O)c2ccc(O)cc2O)cc1`, the figure is 0.1 µM; as for `Cc1cc(S(=O)(=O)NCCN(C)C)cnc1-c1ccc(N(Cc2ccsc2)C(=O)c2ccc(O)cc2O)cc1`, 0.01 µM.
`Cc1cccnc1-c1ccc(N(Cc2cccnc2)C(=O)c2cc(Cl)c(O)cc2O)cc1` showed an IC50 of 0.01 µM.
`O=C(c1ccc(O)cc1O)N(Cc1ccsc1)c1ccc(-c2ncnc3ccsc23)cc1` came in with an IC50 of 1 µM.
With `CN(Cc1ccc2c(ccn2C)c1)C(=O)c1ccc(N(Cc2ccsc2)C(=O)c2ccc(O)cc2O)cc1` the figure was 1 µM; with `O=C(c1ccc(O)cc1O)N(Cc1ccsc1)c1ccc(-c2ncccc2CO)cc1`, 0.1 µM; with `CSc1nc(Cl)cc(-c2ccc(N(Cc3cccnc3)C(=O)c3ccc(O)cc3O)cc2)n1`, 1 µM.
As for `Cc1nccnc1-c1ccc(N(Cc2ccsc2)C(=O)c2ccc(O)cc2O)cc1`, the figure is 0.1 µM; as for `Cc1nc(C(F)(F)F)nc(-c2ccc(N(Cc3ccsc3)C(=O)c3ccc(O)cc3O)cc2)c1C`, 0.1 µM; as for `O=C(c1ccc(O)cc1O)N(Cc1ccsc1)c1ccc(-c2nc(Cl)nc3c2COCC3)cc1`, 0.1 µM.
The molecule `Cc1cc(S(=O)(=O)NCc2ccccc2)cnc1-c1ccc(N(Cc2ccsc2)C(=O)c2ccc(O)cc2O)cc1` displayed an IC50 of 0.1 µM.
As for `Cc1csc2ncnc(-c3ccc(N(Cc4cccnc4)C(=O)c4ccc(O)cc4O)cc3)c12`, the figure is 0.1 µM.
With `Cc1cc2ccccc2nc1-c1ccc(N(Cc2cccnc2)C(=O)c2ccc(O)cc2O)cc1` the figure was 0.01 µM; with `O=C(c1ccc(O)cc1O)N(Cc1ccsc1)c1ccc(-c2nc(C(F)(F)F)nc3ccccc23)cc1`, 0.1 µM.
As for `Cc1cnc(Cl)nc1-c1ccc(N(Cc2ccsc2)C(=O)c2cc(Cl)c(O)cc2O)cc1`, the figure is 0.01 µM; as for `COc1ccc(CN(C)C(=O)c2ccc(N(Cc3ccsc3)C(=O)c3cc(C)c(O)cc3O)cc2)cc1`, 0.01 µM.
For the molecule `Cc1cccnc1-c1ccc(N(Cc2cccnc2)C(=O)c2ccc(O)cc2O)cc1`, the IC50 stood at 0.1 µM.
With `Cc1ncc(C)c(-c2ccc(N(Cc3ccsc3)C(=O)c3ccc(O)cc3O)cc2)n1` the figure was 0.01 µM; with `CCc1nccnc1-c1ccc(N(Cc2ccsc2)C(=O)c2ccc(O)cc2O)cc1`, 0.1 µM.
As for `CN(Cc1ccc(OC(F)(F)F)cc1)C(=O)c1ccc(N(Cc2ccsc2)C(=O)c2ccc(O)cc2O)cc1`, the figure is 1 µM; as for `Cc1cnc(Cl)nc1-c1ccc(N(Cc2ccsc2)C(=O)c2ccc(O)cc2O)cc1`, 0.1 µM; as for `COc1cc2cc(Cl)ccc2nc1-c1ccc(N(Cc2ccsc2)C(=O)c2ccc(O)cc2O)cc1`, 0.1 µM.
With `O=C(c1ccc(O)cc1O)N(Cc1cccnc1)c1ccc(-c2ccnc3ccsc23)cc1` the figure was 0.1 µM; with `Cc1nc(C)c(-c2ccc(N(Cc3cccnc3)C(=O)c3ccc(O)cc3O)cc2)s1`, 1 µM.
With `Cc1sc2ncnc(-c3ccc(N(Cc4ccsc4)C(=O)c4ccc(O)cc4O)cc3)c2c1C`, the IC50 stood at 1 µM.
Molecule `Cc1ccnnc1-c1ccc(N(Cc2cccnc2)C(=O)c2ccc(O)cc2O)cc1` yielded an IC50 of 0.1 µM.
As for `CN(Cc1cccc2cnccc12)C(=O)c1ccc(N(Cc2ccsc2)C(=O)c2ccc(O)cc2O)cc1`, the figure is 0.01 µM; as for `CN(Cc1cccc2cccnc12)C(=O)c1ccc(N(Cc2ccsc2)C(=O)c2ccc(O)cc2O)cc1`, 0.1 µM; as for `Cc1csc2ncnc(-c3ccc(N(Cc4ccsc4)C(=O)c4ccc(O)cc4O)cc3)c12`, 0.1 µM.
As for `Cc1cc(C(=O)N(Cc2ccsc2)c2ccc(C(=O)N(C)C)cc2)c(O)cc1O`, the figure is 0.1 µM; as for `CN(Cc1cccs1)C(=O)c1ccc(N(Cc2ccsc2)C(=O)c2ccc(O)cc2O)cc1`, 0.1 µM; as for `CN(Cc1cccc2ncccc12)C(=O)c1ccc(N(Cc2ccsc2)C(=O)c2ccc(O)cc2O)cc1`, 0.1 µM.
Turning to `Cc1c(Cl)nc(Cl)nc1-c1ccc(N(Cc2cccnc2)C(=O)c2ccc(O)cc2O)cc1`, the IC50 amounted to 0.01 µM.
With `COc1cc(-c2ccc(N(Cc3cccnc3)C(=O)c3ccc(O)cc3O)cc2)ncn1` the figure was 1 µM; with `O=C(c1ccc(O)cc1O)N(Cc1ccsc1)c1ccc(-c2nc(C(F)(F)F)ccc2C(F)(F)F)cc1`, 1 µM.
With `Cc1cc(S(=O)(=O)NCc2cccnc2)cnc1-c1ccc(N(Cc2ccsc2)C(=O)c2ccc(O)cc2O)cc1` the figure was 0.01 µM; with `CCOc1ccc2nc(-c3ccc(N(Cc4ccsc4)C(=O)c4ccc(O)cc4O)cc3)c(C)cc2c1`, 1 µM.
For `O=C(c1ccc(O)cc1O)N(Cc1cccnc1)c1ccc(-c2nc(Cl)nc3c2COCC3)cc1`, the IC50 was 0.1 µM.
With `Cc1cc(S(=O)(=O)N2CC(F)(F)C2)cnc1-c1ccc(N(Cc2ccsc2)C(=O)c2ccc(O)cc2O)cc1` the figure was 0.1 µM; with `Cc1cc(C(=O)N(Cc2ccsc2)c2ccc(C(=O)N(C)Cc3ccc4nccnc4c3)cc2)c(O)cc1O`, 0.01 µM; with `O=C(c1ccc(O)cc1O)N(Cc1ccsc1)c1ccc(-c2ccncc2C(F)(F)F)cc1`, 1 µM.
As for `COc1ccc(CN(C)C(=O)c2ccc(N(Cc3ccsc3)C(=O)c3ccc(O)cc3O)cc2)cc1`, the figure is 0.1 µM.
As for `Cc1nc(C(F)(F)F)nc(-c2ccc(N(Cc3cccnc3)C(=O)c3ccc(O)cc3O)cc2)c1C`, the figure is 0.01 µM; as for `Cc1cc2cc(Cl)ccc2nc1-c1ccc(N(Cc2ccsc2)C(=O)c2ccc(O)cc2O)cc1`, 1 µM; as for `CC(=O)N1CCN(S(=O)(=O)c2cnc(-c3ccc(N(Cc4ccsc4)C(=O)c4ccc(O)cc4O)cc3)c(C)c2)CC1`, 0.01 µM.
